For test [1], the system named is mESC. The experiment in a line: FACS isolation of mESC from a MEF and mESC mixture stained with CDy1; Nanog RT-PCR and colony forming assay. The class given is cell-based, mouse. As for the experimental part:
MEFs and mESCs were cultured in 60 mm culture dishes for 24 hours in the presence of 500 nM of hit compounds including CDy1. The cells were harvested by trypsin treatment, washed with PBS, and resuspended in PBS. The fluorescence intensity of the cells was measured with flow cytometry (BD™ LSR II) with PE-Texas Red filter (excitation at 488 nm, emission at 615 nm). The dot plot images for each cell type were overlaid using FlowJo7 (Tree Star Inc., Ashland, Oreg.). For FACS, MEF and mESC were cultured in the same dish and the sample was prepared as described above for flow cytometry. The cells were gated into SSC^low CDy1^bright and SSC^high CDy1^dim regions and were collected using a FACS machine (BD FACS Aria™, BD Biosciences, Franklin Lakes, N.J.).
Total RNA was isolated from cells using RNeasy Mini Kit (QIAGEN Inc.) according to the manufacturer's instruction. cDNA was synthesized from 1 μg of total RNA using REVERTAID™ H Minus First strand cDNA Synthesis kit (Fermentas, Glen Burnie, Md.) and amplified by PCR using GOTAQ® Green Master Mix (Promega, Fitchburg, Wis.). The PCR conditions were as follows: 30 seconds denaturation at 95° C., 30 seconds annealing at 60° C., and a final 30 seconds of extension at 72° C. The sequences of primers used in this study are: Nanog (GenBank Accession No. NM_028016.1): sense 5′-[…]-3′ (SEQ ID NO:1), antisense 5′-[…]-3′ (SEQ ID NO:2); GAPDH (GenBank Accession No. XM—001473443.1): sense 5′-[…]-3′ (SEQ ID NO:3), antisense 5′-[…]-3′ (SEQ ID NO:4). The PCR products obtained after 25 cycles were resolved on 1% agarose gels, visualized by ethidium bromide staining, and the images were taken using a Gel Logic 200 Imaging System (Kodak, Rochester, N.Y.).
To evaluate the capability of CDy1 to isolate ESC from a mixed cell population, a MEF and mESC mixture was stained with CDy1, the mixed cells were gated into SSC^low CDy1^bright and SSC^high CDy1^dim regions, and 40,000 cells were collected by FACS from each gate for a stem cell marker Nanog gene expression analysis and colony forming assay. […]

Test [2] deals with human lung cancer cell line H522. Put plainly: Comparison of CDy1 and ALDEFLUOR staining in H522. The settings on record: fluorescence microscopy. The class given is cell-based. Here is the method:
(§1) In this experiment, the cells cultured on 6-well plates were incubated with 1 μM ALDEFLUOR® for one hour at 37° C. and then washed with PBS three times before ALDEFLUOR® assay buffer was added. Bright field (“B.F”) and fluorescence (FITC filter for ALDEFLUOR® and TRITC filter for CDy1) images were taken using a Nikon ECLIPSE Ti fluorescence microscope (Scale bars, 100 μm).
(§2) Among the few fluorescent dyes used for stem cell staining (Zijlmans et al., “Modification of Rhodamine Staining Allows Identification of Hematopoietic Stem Cells with Preferential Short-term or Long-term Bone Marrow-Repopulating Ability,” Proc. Natl. Acad. Sci. USA, 92:8901-8905 (1995), which is hereby incorporated by reference in its entirety) is ALDEFLUOR® which employs a fluorescent substrate BODIPY-aminoacetaldehyde for aldehyde dehydrogenase (ALDH)1A1 (Storms et al., “Isolation of Primitive Human Hematopoietic Progenitors on the Basis of Aldehyde Dehydrogenase Activity,” Proc. Natl. Acad. Sci. USA, 96: 9118-9123 (1999), which is hereby incorporated by reference in its entirety). It has been used to identify and isolate certain types of stem cells including hematopoietic, neural, and mammary stem cells as well as cancer stem cells. Whether or not ALDEFLUOR® stains ESC has not been known. […] The stemness of hESC BG01V used in this study was verified by immunocytochemical staining of TRA-1-60 (FIG. 14).

The subject of test [3] is mESC. The experiment in a line: Comparison of CDy1 and ALDEFLUOR staining in mESC. The test is classed as cell-based, mouse. The settings on record: fluorescence microscopy. Here is the method: as §1, §2
Test [4] concerns mitochondria in mESC. The experiment in a line: Co-staining of mESC with CDy1 and MITOTRACKER Deep Red 633. The class given is cell-based, mouse. Here is the method: In this experiment mESC were incubated with 500 nM CDy1, 200 nM MITOTRACKER® Deep Red 633, and 4 mg/ml Hoechst for 30 minutes at 37° C. and washed with PBS two times. The cells were mounted on slide glass and the images were taken using a Nikon ECLIPSE Ti fluorescence microscope equipped with a ×100 objective lens (Pearson's correlation coefficient=0.88; scale bar, 5 μm).
In a previous study (Kim et al., “Control of Muscle Differentiation by a Mitochondria-Targeted Fluorophore,” J. Am. Chem. Soc. 132(2): 576-579 (2009), which is hereby incorporated by reference in its entirety), CDy1 was among the compounds targeting mitochondria. To examine whether CDy1 localizes in mitochondria in mESC, the cells were co-stained with CDy1 and a mitochondria-staining commercial dye MITOTRACKER® Deep Red 633. […] In addition to the mitochondrial membrane potential which sequesters many cationic rhodamine and rosamine compounds, other factors such as stem cell specific proteins appear to play roles in the entry and retainment of CDy1 rendering it stem cell selective.

Test [5] concerns cells undergoing reprogramming to induced pluripotent stem cells (Oct4-GFP transgenic MEF). Put plainly: FACS isolation of cells undergoing reprogramming with CDy1 and counting of GFP-positive iPS cell colonies. The class given is cell-based, mouse. The settings on record: sorted by FACS at 10 dpi, 7% of total cell number. As for the experimental part:
Oct4-GFP transgenic mouse embryonic fibroblasts (MEF) transfected with retrovirus expressing Oct4, Sox2, Klf4, and c-Myc were incubated with CDy1 at 10 days post infection (dpi). The cells were harvested using trypsin-EDTA and CDy1^bright and CDy1^dim cells defined as 7% of the total cell number at each end were collected by FACS, plated in culture media, and allowed to grow until 20 dpi for counting the number of induced pluripotent stem (“iPS”) cell colonies which were identified by GFP signal (FIG. 15A).
Among the many cell colonies observed in the bright field images, GFP signal was detected from some of them by fluorescence excitation (FIG. 15B).
(In general: Flow cytometry measures light scatter and fluorescence of single cells or particles in a stream.)

Where [6] appears, read: 40,000 cells collected by FACS, three days culture.

Molecules are shown by their SMILES.

One compound from patent US8735150B2, “Methods for detecting embryonic stem cells, induced pluripotent stem cells, or cells undergoing reprogramming to produce induced pluripotent stem cells” (New York University, priority 2010, dated 2014) can be followed below.

Consider `CCCCN(CCCC)c1ccc2c(-c3cccc(CN4CCOCC4)c3)c3ccc(=N)cc-3oc2c1` [CDy1], for which, in test [1] (setting [6]), the “number of colonies from SSChigh CDy1dim cells” value was 6 and the “number of colonies from SSClow CDy1bright cells” value is given as 604. Besides, in test [1] (RT-PCR), the “Nanog expression in SSClow CDy1bright cells versus SSChigh CDy1dim cells” value is reported as “much higher”. For the same compound, in test [2], the “staining of H522” value is given as “not”. Also, the “staining of mESC” value in test [3] is “stained both”. Moreover, in test [4], the “staining pattern compared with MITOTRACKER staining” value is listed as “very similar to MITOTRACKER® staining”. For the same compound, the “Pearson's correlation coefficient of CDy1 and MITOTRACKER co-localization” value in test [4] (500 nM CDy1, 200 nM MITOTRACKER Deep Red 633, 30 minutes at 37° C.) was found to be 0.88. In test [5], the “GFP-positive iPS cell colonies from CDy1dim cells” value was “no colonies” and the “GFP-positive iPS cell colonies per well from CDy1bright cells” value turned out to be 51 colonies per well.
